Measurements reported in ChEMBL document CHEMBL1151610, “Use of potato disc and brine shrimp bioassays to detect activity and isolate piceatannol as the antileukemic principle from the seeds of Euphorbia lagascae” (J Nat Prod, 1984).
≈ marks a conversion by molar mass, not a printed value. Calls of active or inactive are those of the source. The rule behind the calls is not given here.

Legend:
[1] = Antitumor activity against mouse 3PS cells xenografted mouse assessed as increase in life span at 25 mg/kg; type: functional
[2] = tested on: Agrobacterium tumefaciens; experiment: Antitumor activity against Agrobacterium tumefaciens-induced tumor formation at 10 ug/disk by potato disk assay; type: functional
[3] = Antitumor activity against mouse 3PS cells xenografted mouse assessed as increase in life span at 6.25 mg/kg; type: functional
[4] = Antitumor activity against mouse 3PS cells xenografted mouse assessed as increase in life span at 12.5 mg/kg; type: functional
[5] = Cytotoxicity against mouse 9PS cells; type: functional; conditions: read-out: LC50 (the source's name)
[6] = Antitumor activity against mouse 3PS cells xenografted mouse assessed as increase in life span at 50 mg/kg; type: functional
[7] = Toxicity against brine shrimp; type: organism-based; conditions: artemia, in vivo
[8] = Antitumor activity against mouse 3PS cells xenografted mouse assessed as increase in life span at 3.62 mg/kg; type: functional
Mus musculus = experiment: Antitumor activity against mouse 3PS cells xenografted mouse assessed as increase in life span; type: functional, cell-based

SMILES	Activity [1] [%]	Activity [2] [%]	Activity [3] [%]	Activity [4] [%]	CC50 [5] [µg/mL]	Activity [6] [%]	LC50 [7] [µg/mL]	Activity [8] [%]	Activity (Mus musculus)
Oc1cc(O)cc(/C=C/c2ccc(O)c(O)c2)c1 [PICEATANNOL]	123	-20	114	118	2.5 (≈ 10.2 µM)	131	278 (≈ 1140 µM)	109	
O=c1ccc2cc(O)c(O)cc2o1 [ESCULETIN]		-13			3.9 (≈ 21.9 µM)		> 1000		inactive
